Tests used:
[1] = test system: hPSC-KCs; experiment: cytokine production (ELISA) and morphology upon LPS activation, hPSC-KCs; assay type: cell-based, human
Method: (§1) FIG. 3A are phase contrast images showing morphological changes in hPSC-KCs (upper panel) and NL-Mφ (lower panel) following LPS treatment. Scale bar: 100 μm. […] Supernatant from cell cultures were collected 16 hours after LPS treatment and cytokine production was measured using ELISA. IL-6 and TNF4α (after LPS treatment) production was not detected in PHHs. TNF4α production was not detected in NL-Mφ before LPS treatment. Data are presented after normalization to cell numbers and the bars represent mean±s.d. (n=3). Dashed lines represent fold differences between cytokine production before and after LPS treatment (folds are indicated on top of the dashed lines). Solid lines represent p<0.05 (two-tailed paired t-test). […] No significant differences were observed between IL-6 levels in hPSC-KCs and PHKCs in terms of basal levels (no LPS treatment) and LPS-induced levels. The fold increase in TNF4α production in hPSC-KCs (33 fold) was similar to the fold increase in PHKCs (35 fold). […] It has been reported that Kupffer cells show a lower extent of cytokine production upon cytokine stimulation.
For activation of hPSC-KCs to examine cytokine production, lipopolysaccharide (LPS) was added to the culture medium during the last 16 hours of culture. Medium was collected at the end of the incubation period and morphological changes and cytokine production upon LPS activation was analyzed. […] The fold increase in TNF4α production in hPSC-KCs (33 fold) was similar to the fold increase in PHKCs (35 fold) (FIG. 3C).

[2] = test system: primary human hepatocytes (PHHs); experiment: cytokine production (ELISA) upon LPS activation, PHHs; assay type: cell-based
Method: as §1
(§2) For activation of hPSC-KCs to examine cytokine production, lipopolysaccharide (LPS) was added to the culture medium during the last 16 hours of culture. Medium was collected at the end of the incubation period and morphological changes and cytokine production upon LPS activation was analyzed. […]

[3] = test system: PHKCs (primary human Kupffer cells); experiment: cytokine production (ELISA) upon LPS activation, PHKCs; assay type: cell-based; settings: LPS during last 16 hours of culture
Method: as §1, §2

[4] = test system: NL-Mφ (non-liver macrophages); experiment: cytokine production (ELISA) and morphology upon LPS activation, NL-Mφ; assay type: cell-based, human
Method: as §1, §2

[5] = test system: PHHs-NL-Mφ co-cultures; experiment: Alamar Blue cell viability, PHHs-NL-Mφ co-cultures; assay type: cell-based, human; settings: 24 hours treatment, PHHs-NL-Mφ co-cultures vs PHHs monocultures, FIG. 5C
Method: (§3) PHHs monocultures, PHHs-PHKCs co-cultures (FIG. 5A), PHHs-hPSC-KCs co-cultures (FIG. 5B) and PHHs-hPSC-Mac co-cultures (FIG. 5C) treated with LPS (solid lines) or left untreated (dashed lines) were exposed to Acetaminophen (APAP) 16 hours after LPS treatment. 24 hours after addition of the drug, cell viability was assayed using Alamar Blue. Cell viability is expressed as percentage of viable cells compared to vehicle control (DMSO). Data are presented as mean±s.d (n=3). * indicates statistically significant differences between LPS-activated monoculture and co-culture; # indicate statistically significant differences between non-activated monoculture and co-culture (p<0.05).
(§4) Previous reports have shown the suppression of CYP expression and activity in human and rat hepatocytes when co-cultured with Kupffer cells. […] Therefore, it was analyzed if differences could be identified between PHHs-PHKCs co-cultures and PHHs monocultures in toxicity responses to paradigm hepatotoxicants, and if this difference could be recapitulated in PHHs-hPSC-KCs or PHHs-hPSC-Mac co-cultures. The monocultures and co-cultures were treated with the paradigm hepatotoxicant acetaminophen for 24 hours, and cell viability was measured using Alamar Blue assay. Cell viability was quantified as percentage of […] compared to vehicle control (DMSO).

[6] = test system: PHHs-PHKCs co-cultures; experiment: Alamar Blue cell viability, PHHs-PHKCs co-cultures; assay type: cell-based, human; settings: 24 hours treatment, PHHs-PHKCs co-cultures vs PHHs monocultures, FIG. 5A
Method: as §3, §4

[7] = test system: PHHs-hPSC-KCs co-cultures; experiment: Alamar Blue cell viability, PHHs-hPSC-KCs co-cultures; assay type: cell-based, human; settings: 24 hours treatment, PHHs-hPSC-KCs co-cultures vs PHHs monocultures, FIG. 5B
Method: as §3, §4

Molecule: lipopolysaccharide [LPS]
- morphological changes ([1]; LPS activation, FIG. 3A): from round to flat and spread cells
- fold induction of IL-6 production ([1]; LPS during last 16 hours of culture, FIG. 3B): in the same range as that of the PHKCs
- fold increase in TNF4α production ([1]; LPS during last 16 hours of culture, FIG. 3C): 33 fold
- IL-6 production ([2]; FIG. 3B): below detectable levels
- TNF4α production ([2]; upon LPS activation): below detectable levels
- fold induction of IL-6 production ([3]; FIG. 3B): 25 fold
- fold increase in TNF4α production ([3]; FIG. 3C): 35 fold
- levels of cytokines (IL-6, TNF4α) ([4]; NL-Mφ compared to PHKCs and hPSC-KCs, FIG. 3B and 3C): much higher levels
- morphological changes ([4]; NL-Mφ, LPS activation, FIG. 3A): from round to flat and spread cells

Molecule: CC(=O)Nc1ccc(O)cc1 [acetaminophen]
- cell death compared to PHHs monocultures [5]: No difference in cell death
- cell death compared to monoculture controls [6]: higher cell death
- cell death compared to monoculture controls [7]: higher cell death
